Drawing on patent US20250171431A1, “HETEROCYCLIC INHIBITORS OF IGF-1R FOR TREATMENT OF DISEASE” (HORIZON THERAPEUTICS IRELAND DAC, priority 2023, published 2025), this text covers IC50 for 24 compounds.

SMILES strings stand for the structures. Some results are limits rather than exact numbers.

The target of the test is IGF-1R (Homo sapiens (Human), UniProt P08069). Briefly: Example B-1: IGF-1R Assay (PC3 cells, IGF1 stimulation, AlphaLISA). The settings on record: 200 ng/mL IGF1 stimulation, read-out: Biological Activity against IGF-1R IC50. Format: cell-based. In short, it runs like this:
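Readout is AlphaLISA signal from lysed PC3 cells, expressed as % inhibition versus vehicle and EC80 controls and banded by IC50. Before lysis, the cells were starved of serum for 2 h, exposed to 3× serially diluted compound for 2 h, and stimulated for 30 min with 200 ng/mL IGF1 (final).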

Chain of IGF-1R (P08069 31-1367): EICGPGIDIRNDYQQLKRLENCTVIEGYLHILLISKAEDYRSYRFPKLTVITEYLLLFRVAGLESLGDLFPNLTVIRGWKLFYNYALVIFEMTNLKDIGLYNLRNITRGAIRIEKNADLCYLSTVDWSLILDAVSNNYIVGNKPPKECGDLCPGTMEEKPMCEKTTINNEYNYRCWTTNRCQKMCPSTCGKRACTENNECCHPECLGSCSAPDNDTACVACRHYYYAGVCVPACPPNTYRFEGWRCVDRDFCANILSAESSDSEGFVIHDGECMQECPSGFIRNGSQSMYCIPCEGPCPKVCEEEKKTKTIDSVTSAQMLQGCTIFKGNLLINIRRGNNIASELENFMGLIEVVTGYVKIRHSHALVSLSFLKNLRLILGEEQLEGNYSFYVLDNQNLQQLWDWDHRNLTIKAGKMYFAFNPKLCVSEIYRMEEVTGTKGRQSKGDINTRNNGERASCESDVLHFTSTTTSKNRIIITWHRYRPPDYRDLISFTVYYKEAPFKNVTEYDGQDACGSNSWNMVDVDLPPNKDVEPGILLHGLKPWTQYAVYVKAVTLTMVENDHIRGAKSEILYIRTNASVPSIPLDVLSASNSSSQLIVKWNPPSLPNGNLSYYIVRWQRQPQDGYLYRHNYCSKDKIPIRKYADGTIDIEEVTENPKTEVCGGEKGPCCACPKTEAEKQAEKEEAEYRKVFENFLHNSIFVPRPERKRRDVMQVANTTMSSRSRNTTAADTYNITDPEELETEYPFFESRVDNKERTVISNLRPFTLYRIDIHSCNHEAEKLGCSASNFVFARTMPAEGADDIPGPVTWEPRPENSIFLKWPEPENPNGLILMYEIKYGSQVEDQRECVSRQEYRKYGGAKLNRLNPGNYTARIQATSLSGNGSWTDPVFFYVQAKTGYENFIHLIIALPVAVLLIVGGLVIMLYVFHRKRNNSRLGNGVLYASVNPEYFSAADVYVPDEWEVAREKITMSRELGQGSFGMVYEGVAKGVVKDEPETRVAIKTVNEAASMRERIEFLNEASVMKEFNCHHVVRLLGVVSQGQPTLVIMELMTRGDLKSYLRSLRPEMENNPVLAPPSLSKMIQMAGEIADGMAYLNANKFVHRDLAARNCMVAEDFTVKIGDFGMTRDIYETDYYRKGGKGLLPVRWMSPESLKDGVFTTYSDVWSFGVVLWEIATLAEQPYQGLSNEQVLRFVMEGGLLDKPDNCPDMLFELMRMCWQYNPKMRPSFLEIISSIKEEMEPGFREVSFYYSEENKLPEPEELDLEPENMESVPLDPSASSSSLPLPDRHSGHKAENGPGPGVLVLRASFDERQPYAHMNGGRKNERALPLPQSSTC

As to `COc1cc(Nc2nccc(Nc3ccc4c(n3)CC3CCC4N3C)n2)ccc1OCCCN1CCCCC1` (stereo not drawn) [Compound 4, 2-[3-methoxy-4-(3-piperidinopropoxy)phenylamino]-4-(12-methyl-6,12-diazatricyclo[7.2.1.0^2,7]dodeca-2,4,6-trien-5-ylamino)pyrimidine], the IC50 is 2000 to 10000 nM.

On to `COc1cc(Nc2nccc(Nc3cnc4cc(OC(F)(F)F)ccc4c3)n2)ccc1O[C@H]1C[C@H](N(C)C)C1` [Compound 8, 2-{3-methoxy-4-[(1r,3r)-3-(dimethylamino)cyclobutoxy]phenylamino}-4-(7-trifluoromethoxy-3-quinolylamino)pyrimidine], for which the half-inhibitory concentration (IC50) was at most 500 nM.

For `COc1cc(Nc2nccc(Nc3cnc4cc(F)c(F)cc4c3)n2)cnc1OC1CCNCC1` [Compound 89, N4-(6,7-difluoroquinolin-3-yl)-N2-(5-methoxy-6-(piperidin-4-yloxy)pyridin-3-yl)pyrimidine-2,4-diamine], the concentration for half-maximal inhibition (IC50) lay in the range of 500 to 2000 nM.

For `COc1cc(Nc2nccc(Nc3cc4cccc(F)c4[nH]c3=O)n2)cnc1O[C@@H]1CCN(C)C1` [Compound 165, 3-(2-{6-[(R)-1-methyl-3-pyrrolidinyloxy]-5-methoxy-3-pyridylamino}-4-pyrimidinylamino)-8-fluoro-1,2-dihydro-2-quinolinone], the concentration for half-maximal inhibition (IC50) fell in the range of 500 to 2000 nM.

Regarding `COc1cc(Nc2nccc(Nc3ncc4c(Cl)cccc4n3)n2)ccc1O[C@H]1C[C@@H](N(C)C)C1` [Compound 306, 4-(5-chloro-2-quinazolinylamino)-2-{3-methoxy-4-[(1s,3s)-3-(dimethylamino)cyclobutoxy]phenylamino}pyrimidine], the IC50 is above 10000 nM.

As for `CN(C)[C@H]1C[C@H](Oc2ccc(Nc3nccc(Nc4cnc5ccccc5c4)n3)cc2Cl)C1` [Compound 35, 2-{3-chloro-4-[(1r,3r)-3-(dimethylamino)cyclobutoxy]phenylamino}-4-(3-quinolylamino)pyrimidine], the IC50 was at most 500 nM.

`COc1cc(Nc2nccc(Nc3cc4cccc(F)c4[nH]c3=O)n2)cnc1OC1CC2(C1)CN(C)C2` [Compound 167, 8-fluoro-3-(2-{5-methoxy-6-(2-methyl-2-aza-6-spiro[3.3]heptyloxy)-3-pyridylamino}-4-pyrimidinylamino)-1,2-dihydro-2-quinolinone]: the 50% inhibitory concentration (IC50) is at most 500 nM.

Turning to `COc1cc(Nc2nccc(Nc3cnc4ccc(Br)cc4c3)n2)ccc1O[C@H]1CC[C@@H](N(C)C)CC1` [Compound 33, 4-(6-bromo-3-quinolylamino)-2-{3-methoxy-4-[(1s,4s)-4-(dimethylamino)cyclohexyloxy]phenylamino}pyrimidine], the half-maximal inhibitory concentration (IC50) was at most 500 nM.

For the compound `COc1cc(Nc2nccc(Nc3cnc4cc(Br)cnc4c3)n2)ccc1O[C@H]1C[C@@H](N(C)C)C1` [Compound 316, 4-(7-bromo-1,5-diaza-3-naphthylamino)-2-{3-methoxy-4-[(1s,3s)-3-(dimethylamino)cyclobutoxy]phenylamino}pyrimidine], the IC50 is at most 500 nM.

Regarding `COc1cc(Nc2nccc(Nc3cnc4cc(F)c(F)cc4c3)n2)cnc1N1CCOCC1` [Compound 469, 4-(6,7-difluoro-3-quinolylamino)-2-(5-methoxy-6-morpholino-3-pyridylamino)pyrimidine], the half-maximal inhibitory concentration (IC50) is at most 500 nM.

Regarding `COc1cc(Nc2nccc(Nc3cnc4cc(F)c(F)cc4c3)n2)cnc1N1CCC(C)(O)CC1` [Compound 156, 1-(5-((4-((6,7-difluoroquinolin-3-yl)amino)pyrimidin-2-yl)amino)-3-methoxypyridin-2-yl)-4-methylpiperidin-4-ol], the concentration for half-maximal inhibition (IC50) was at most 500 nM.

In the case of `COc1cc(Nc2nccc(Nc3cnc4c(c3)C3CCC4CC3)n2)ccc1OCCCN1CCCCC1` [Compound 209], the concentration for half-maximal inhibition (IC50) is at most 500 nM.

As for `COc1cc(Nc2nccc(Nc3cc4cccc(F)c4[nH]c3=O)n2)cnc1N1CCN(C)C(C)(C)C1` [Compound 229, 3-{2-[6-(3,3-dimethyl-4-methyl-1-piperazinyl)-5-methoxy-3-pyridylamino]-4-pyrimidinylamino}-8-fluoro-1,2-dihydro-2-quinolinone], the IC50 is at most 500 nM.

As for `O=c1[nH]c2ccccc2cc1Nc1ccnc(Nc2ccc(OCCCN3CCOCC3)cc2)n1` [Compound 251, 3-{2-[p-(3-morpholinopropoxy)phenylamino]-4-pyrimidinylamino}-2(1H)-quinolinone], the IC50 is at most 500 nM.

As for `COc1cc(Nc2nccc(Nc3cnc4c(c3)OCCO4)n2)ccc1O[C@H]1C[C@H](N2CCOCC2)C1` [Compound 23, 4-(2,3-dihydro-1,4-dioxa-5-aza-7-naphthylamino)-2-{3-methoxy-4-[(1r,3r)-3-morpholinocyclobutoxy]phenylamino}pyrimidine], the half-maximal inhibitory concentration (IC50) is at most 500 nM.

As for `COc1cc(Nc2nccc(Nc3cc4cccc(F)c4[nH]c3=O)n2)cnc1N1CCN(CC(F)(F)F)CC1` [Compound 232, 8-fluoro-3-(2-{5-methoxy-6-[4-(2,2,2-trifluoroethyl)-1-piperazinyl]-3-pyridylamino}-4-pyrimidinylamino)-1,2-dihydro-2-quinolinone], the IC50 was at most 500 nM.

As for `c1cc(Nc2cnc3cc(C4CC4)ccc3c2)nc(Nc2ccc(OCCCN3CCOCC3)cc2)n1` [Compound 405, 4-(7-cyclopropyl-3-quinolylamino)-2-[p-(3-morpholinopropoxy)phenylamino]pyrimidine], the 50% inhibitory concentration (IC50) lay within 2000 to 10000 nM.

As to `COc1cc(Nc2nccc(Nc3cc(Cl)c4ncccc4c3)n2)ccc1OCCCN1CCCCC1` [Compound 457, 4-(8-chloro-6-quinolylamino)-2-[3-methoxy-4-(3-piperidinopropoxy)phenylamino] pyrimidine], the IC50 was at most 500 nM.

For the compound `COc1cc(Nc2nccc(Nc3cnc4ccc(Cl)cc4c3)n2)ccc1OC1CN(C)C1` [Compound 293, 4-(6-chloro-3-quinolylamino)-2-[3-methoxy-4-(1-methyl-3-azetidinyloxy)phenylamino] pyrimidine], the half-maximal inhibitory concentration (IC50) was above 10000 nM.

Regarding `COc1cc(Nc2nccc(Nc3cc4cccc(F)c4[nH]c3=O)n2)cnc1N1CCOC(C)(C)C1` [Compound 160, 3-((2-((6-(2,2-dimethylmorpholino)-5-methoxypyridin-3-yl)amino)pyrimidin-4-yl)amino)-8-fluoroquinolin-2(1H)-one], the IC50 is at most 500 nM.

Regarding `Clc1ccc2cc(Nc3ccnc(Nc4ccc(OCCCN5CCOCC5)cc4)n3)cnc2c1` [Compound 410, 4-(7-chloro-3-quinolylamino)-2-[p-(3-morpholinopropoxy)phenylamino]pyrimidine], the half-maximal inhibitory concentration (IC50) was in the range of 2000 to 10000 nM.

With `COc1cc(Nc2nccc(Nc3cnc4cc(F)c(F)cc4c3)n2)cnc1N1CC2(COC2)C1` [Compound 50, 4-(6,7-difluoro-3-quinolylamino)-2-{5-methoxy-6-(2-oxa-6-aza-6-spiro[3.3]heptyl)-3-pyridylamino}pyrimidine], the IC50 was at most 500 nM.

Regarding `COCCN(C)[C@H]1C[C@@H](Oc2ccc(Nc3nccc(Nc4cnc5cc(F)c(F)cc5c4)n3)cc2OC)C1` [Compound 47, 4-(6,7-difluoro-3-quinolylamino)-2-(3-methoxy-4-{(1s,3s)-3-[(2-methoxyethyl)-N-methylamino]cyclobutoxy}phenylamino)pyrimidine], the IC50 is at most 500 nM.

As for `COc1cc(Nc2nccc(Nc3cnc4cc(F)ccc4c3)n2)ccc1OCCCN1CCCCC1` [Compound 97, 4-(7-fluoro-3-quinolylamino)-2-[3-methoxy-4-(3-piperidinopropoxy)phenylamino]pyrimidine], the IC50 was at most 500 nM.

Usually IC50 stands for the concentration that gives 50% inhibition.
